From patent US8697081B2, “Method of modulating neovascularization” (The Regents of the University of Michigan, priority 2008, dated 2014)

How the values were obtained:
Format in all cases: cell-based
[1] = tested on: Human umbilical vein endothelial cells; assay: Nuclear architecture (GFP-lamin A, emerin) and nuclear pore complex (NUP153) distribution; conditions: 3-D culture, VEGF/HGF-stimulated, blebbistatin or nocodazole
Source text: (§1) At sites of tissue damage, inflammation or neoplasia, fibrinogen is converted into a 3-D meshwork of fibrin fibrils that serve as a structural support for endothelial cells undergoing neovascularization (Chun et al. 2006. Cell, 125: 577-591; Hiraoka et al. 1998. Cell, 95: 365-377; Schafer and Werner. 2008. Nat. Rev. Mol. Cell Biol., 9: 628-638; Zhou et al. 2008. Genes Dev., 22: 1231-1243). This process can be recapitulated in vitro by embedding serum-supplemented human endothelial cells within a 3-D fibrin gel in the presence of the pro-angiogenic factors, VEGF and HGF. Human umbilical vein endothelial cells were isolated from umbilical cords by perfusion of the umbilical vein with type 3 collagenase (Worthington, Lakewood, N.J.) and cultured in Medium-199 (Invitrogen, Carlsbad, Calif.) with 20% human serum and 50 μg/ml endothelial cell growth supplement (ECGS; BD Biosciences, Franklin Lakes, N.J.). For 3-D culture, endothelial cells were suspended in a solution of thrombin and aprotinin (Sigma, St. Louis, Mo.) and mixed 1:1 with a solution of 6 mg/ml fibrinogen (Calbiochem, Gibbstown, N.J.). Vasculogenesis was triggered by treatment with 100 ng/ml VEGF, 50 ng/ml HGF (Genentech, San Francisco, Calif.). Fibronectin fibrillogenesis was tracked in 3-D by co-culture with human fibronectin (Sigma) labeled with Alexa-594 (Invitrogen).
As the 3-D-specific requirements for MT-MMPs and fibronectin matrix assembly correlate with changes in endothelial cell morphology, efforts were initiated to identify mechanistic routes whereby cell shape changes impact cell function. In particular, the impact of ECM remodeling on nuclear architecture was investigated. Nuclear architecture was tracked by either transfecting cells with a GFP-tagged form of the nuclear matrix filament, lamin A, or by immunostaining for the integral nuclear membrane protein, emerin (Dahl et al., 2008. Circ. Res., 102: 1307-1318; Glynn and Glover, 2005. Hum. Mol. Genet., 14: 2959-2969; Starr, 2009. J. Cell Sci., 122: 577-586; Stewart et al., 2007. Science, 318: 1408-1412). Under 2-D conditions, endothelial cell nuclei assumed an ellipsoid shape when cultured atop fibrin gels in the absence or presence of VEGF/HGF. In marked contrast, under 3-D conditions, endothelial cells cultured within fibrin gels in the absence of VEGF/HGF unexpectedly display a distorted morphology with multiple lamin A matrix and emerin infoldings and surface irregularities. Upon addition of VEGF/HGF, however, the nuclei of fibrin-embedded endothelial cells undergo a dramatic, and 3-D-specific, remodeling to assume a more classic, ovoid morphology. Three-dimensional reconstructions of DAPI-stained nuclei confirm that nuclear architecture transitions between multi-lobed and smooth elliptical shapes in the absence or presence, respectively, of VEGF/HGF.
Nuclear matrix architecture controls the distribution of the nuclear pore complexes that regulate the trafficking of protein and RNA across the nuclear envelope (Goldman et al., 2004. Proc. Natl. Acad. Sci. USA, 101: 8963-8968; Hawryluk-Gara et al., 2005. Mol. Biol. Cell, 16: 2382-2394; Liu et al., 2007. J. Cell. Biol., 178: 785-798). As such, the localization of nuclear pores was assessed in intact cells by monitoring the localization of the component protein, NUP153. In 3-D culture, unstimulated endothelial cells accumulate NUP153-containing pore complexes at nuclear membrane invaginations. In contrast, the nuclei of VEGF/HGF-stimulated endothelial cells display a uniform distribution of pore complexes in nuclear membranes.
To determine the roles of MMP-dependent proteolysis and fibronectin matrix assembly in mediating nuclear shape and nuclear pore complex changes, fibrin-embedded endothelial cells were stimulated with VEGF/HGF in the presence of FUD or GM6001. […]

[2] = tested on: Human umbilical vein endothelial cells; assay: Cytoskeletal organization (F-actin, β-tubulin, vimentin) and isometric tension/contractile force; conditions: 3-D culture, VEGF/HGF-stimulated, blebbistatin or nocodazole
[3] = tested on: Human umbilical vein endothelial cells; assay: Chromatin organization (GFP-H2B, H3K9me3) and histone H3/H4 acetylation; conditions: 3-D culture, VEGF/HGF-stimulated, blebbistatin or nocodazole
Source text: as §1
Yet, multi-lobed nuclei and anomalous nuclear pore complex distributions can be observed in laminopathies, a pleiotropic series of genetic disorders wherein mutations in lamin or emerin impact chromatin organization, histone modifications, and transcriptional activity (Csoka et al., 2004. Aging Cell, 3: 235-243; Dechat et al., 2008. Genes Dev, 22: 832-853; Dillon, 2008. Dev Cell, 15: 182-186; Malhas et al., 2007. J. Cell Biol., 176: 593-603; Mendjan et al., 2006. Mol. Cell, 21: 811-823; Shumaker et al., 2006. Proc. Natl. Acad. Sci. USA, 103: 8703-8708; Tang et al., 2008. J. Cell Sci., 121: 1014-1024). To determine whether VEGF/HGF-dependent changes in nuclear shape similarly affect chromatin structure/function, chromatin packaging was tracked at the single-endothelial cell level by monitoring GFP-tagged histone H2B or pericentromeric constitutive heterochromatin localization. […] heterochromatin localization was visualized by immunostaining for trimethylated lysine 9 of histone H3 (H3K9me3) (Shumaker, supra; Tang, supra).
Histone acetylation can be regulated by chromatin positioning within the nucleus (Finlan et al., 2008. PLoS Genet, 4: e1000039; Somech et al., 2005. J. Cell Sci., 118: 4017-4025). Thus, the acetylation status of histones H3 and H4 was assessed as functional markers of changes in chromatin organization. […]

[4] = tested on: Human umbilical vein endothelial cells; assay: VEGF/HGF-triggered vasculogenesis in 3-D fibrin gel, or growth in 2-D culture; conditions: 3-D culture, VEGF/HGF-stimulated, blebbistatin or nocodazole
Source text: as §1
In the presence of VEGF and HGF, endothelial cells i) underwent marked changes in cell morphology from spherical to elongated, ii) mobilized proteinases which degrade the surrounding fibrin, iii) assembled a pericellular meshwork of fibronectin fibrils, and iv) initiated proliferative and tubulogenic responses that result in the formation of an anastomosing network of neovessels over a 6 day culture period (Hiraoka, supra; Saunders et al., 2006. J Cell Biol. 175: 179-191; Zhou et al., 2008. Proc. Natl. Acad. Sci. USA, 97: 4052-4057). […] Cell, 125: 757-767; Saunders et al., supra; Tomasini-Johansson et al., 2001. J. Biol. Chem., 276: 23430-23439; Zhou et al, supra). Endothelial cells cultured atop—rather than embedded within—fibrin gels (herein referred to as 2-D culture) display distinct growth requirements from those observed in 3-D culture.
Taken together, cytoskeletal reorganization and contractile tension may serve as the biomechanical effectors that transmit structural and mechanical cues from the pericellular ECM to the nuclear envelope. VEGF/HGF-stimulated endothelial cells were treated with either (a) blebbistatin to inhibit myosin ATPase function, or (b) nocodazole to prevent microtubule assembly under 3-D culture conditions (Salpingidou et al., 2007. J. Cell Biol., 178: 897-904; Zhou et al., supra).

human endothelial cells [5] = assay: F-actin cytoskeletal organization, activated β1 integrin and vinculin distribution (phalloidin, confocal); conditions: 3-D fibrin gel, 2 days, FUD or Del29 peptide
Description: To further study the effects of Fn matrix inhibition, additional cytological processes associated with angiogenesis were examined. Endothelial cells were cultured within 3-D or 2-D fibrin gels in the presence of the FUD or Del 29 peptides for 2 days. F-actin cytoskeletal organization was monitored following staining with Alexa 488-conjugated phalloidin. Cells also were stained with an antibody against activated β1 integrin or transfected with a GFP-tagged vinculin expression vector (pRK-vinculin-EGFP) to study distribution. Following counterstaining with Alexa 594-labeled phalloidin, fluorescence was monitored by confocal laser microscopy.
In the absence of Fn fibrillogenesis, an impaired ability of embedded endothelial cells to generate myosin-dependent forces and increase cytoplasmic stiffness was predicted to affect both Fn unfolding, as well as the ability of the cells to properly register the mechanical properties of the surrounding substratum (Wu et al. 1995. Cell, 83(5): 715-724; Zhong et al. 1998. J. Cell Biol., 141(2): 539-551; Baneyx et al. 2002. Proc. Natl. Acad. Sci. USA, 99(8): 5139-5143; Discher et al. 2005. Science, 310(5751): 1139-1143; Engler, supra; and Yoneda, supra). As such, the rheologic and functional characteristics of endothelial cells were assessed in the presence of the specific myosin ATPase inhibitor, blebbistatin. […]

human endothelial cells [6] = assay: Fn matrix assembly by endothelial cells in 3-D fibrin gel, confocal laser microscopy; conditions: growth factor cocktail, FUD or Del29 250 nM, L8 or 9D2 100 μg/ml, 70 kDa Fn fragment 75 μg/ml
Description: Endothelial cells were isolated from human umbilical cord veins by collagenase digestion and cultured in Medium 199 (Gibco) containing 20% human serum, 50 μg/ml endothelial cell growth supplement (BD Biosciences), 100 U/ml penicillin, and 100 μg/ml streptomycin (Hiraoka et al. 1998. Cell, 95(3): 365-377). For 2-D/3-D culture, endothelial cell monolayers (no later than third passage) were suspended by mild trypsinization and dispersed within or plated atop fibrin (3 mg/ml) or collagen (2.2 mg/ml) gels (prepared as described in Hiraoka, supra, and Hotary et al. 2003. Cell, 114(1): 33-45), and stimulated with a cocktail of growth factors including 100 ng/ml human vascular endothelial growth factor (Genentech), 50 ng/ml human hepatocyte growth factor (Genentech), 10 ng/ml human TGFα (Biosource), 0.5 ng/ml TGFβ1 (R and D Systems), and 100 μg/ml heparin (Sigma). In selected experiments, endothelial cell spheroids were prepared and suspended in 3-D fibrin gels.
The effect of Fn matrix assembly, or lack thereof, on endothelial cell function during neovascularization was assessed. Human serum was depleted of Fn by gelatin-sepharose affinity chromatography (Amersham) and supplemented with either 20 μg/ml of human plasma Fn (Sigma) or FITC-labeled Fn. […]
(Chernousov et al. 1991. J. Biol. Chem., 266(17): 10851-10858; Tomasini-Johansson et al. 2001. J. Biol. Chem., 276(26): 23430-23439; Mao and Schwarzbauer. 2005. Matrix Biol., 24(6): 389-399; and Tomasini-Johansson et al. 2006. Matrix Biol., 25(5): 282-293). […] Cell number in 3-D cultures was determined by hemacytometry after dissolving gels with 2 mg/ml bacterial collagenase (Worthington) while the number of patent tubules was determined in randomly selected cross-sections. Fn matrix assembly and cell morphology were monitored by confocal laser microscopy. To examine cell migration, endothelial cells were embedded in a 100 μl fibrin gel for 2 hours, then placed within a 500 μl gel for 8 days in the presence of Del29, FUD, control IgG, or L8, after which migration from the inner gel was assessed. […]

Which results are given for COC(=O)Nc1nc2ccc(C(=O)c3cccs3)cc2[nH]1 [nocodazole]?
nuclear shape and nuclear pore distribution [1]: multi-lobed nuclei with perturbations in nuclear pore distribution; contractile force exerted on the 3-D ECM [2]: impairing; chromatin distribution [3]: chromatin condensations at the nuclear periphery with increased interchromatin space; levels of acetylated histones H3 and H4 [3]: decreased levels; endothelial cell 3-D tubulogenesis [4]: completely inhibit

For “Del29: control peptide wherein FUD residue 29 is deleted to abrogate Fn binding (KDQSPLAGESGETEYITEVYGNQQNPVDDKKLPNETGFSGNMVETEDT)”, which “stress fiber formation (F-actin phalloidin staining)” value (human endothelial cells [5]) is on record?
Its value is “well-organized stress fibers”.

And the “Fn matrix assembly (Fn polymerization)” value (human endothelial cells [6])?
The value was “did not negatively impact”.
